In BindingDB's records for doi:10.1016/j.ejmech.2021.113604 (China Pharmaceutical University, 2021):

Tests used:
[1] = biological target: Heat shock protein HSP 90-alpha (Homo sapiens, UniProt P07900); experiment: Binding affinity to His-tagged human N-terminal HSP90alpha (1 to 236 residues) expressed in Escherichia coli BL21 (DE3) assessed as dissociation constant at 1.1 to 30 uM measured by BLI assay
[2] = biological target: Endoplasmin (Canis lupus familiaris, UniProt P41148); experiment: Binding affinity to GST-tagged dog GRP94 (69 to 337 residues) expressed in Escherichia coli BL21 (DE3) assessed as dissociation constant at 0.37 to 10 uM measured by BLI assay
Endoplasmin, sequence (P41148 whole entry, the tested form may be a part): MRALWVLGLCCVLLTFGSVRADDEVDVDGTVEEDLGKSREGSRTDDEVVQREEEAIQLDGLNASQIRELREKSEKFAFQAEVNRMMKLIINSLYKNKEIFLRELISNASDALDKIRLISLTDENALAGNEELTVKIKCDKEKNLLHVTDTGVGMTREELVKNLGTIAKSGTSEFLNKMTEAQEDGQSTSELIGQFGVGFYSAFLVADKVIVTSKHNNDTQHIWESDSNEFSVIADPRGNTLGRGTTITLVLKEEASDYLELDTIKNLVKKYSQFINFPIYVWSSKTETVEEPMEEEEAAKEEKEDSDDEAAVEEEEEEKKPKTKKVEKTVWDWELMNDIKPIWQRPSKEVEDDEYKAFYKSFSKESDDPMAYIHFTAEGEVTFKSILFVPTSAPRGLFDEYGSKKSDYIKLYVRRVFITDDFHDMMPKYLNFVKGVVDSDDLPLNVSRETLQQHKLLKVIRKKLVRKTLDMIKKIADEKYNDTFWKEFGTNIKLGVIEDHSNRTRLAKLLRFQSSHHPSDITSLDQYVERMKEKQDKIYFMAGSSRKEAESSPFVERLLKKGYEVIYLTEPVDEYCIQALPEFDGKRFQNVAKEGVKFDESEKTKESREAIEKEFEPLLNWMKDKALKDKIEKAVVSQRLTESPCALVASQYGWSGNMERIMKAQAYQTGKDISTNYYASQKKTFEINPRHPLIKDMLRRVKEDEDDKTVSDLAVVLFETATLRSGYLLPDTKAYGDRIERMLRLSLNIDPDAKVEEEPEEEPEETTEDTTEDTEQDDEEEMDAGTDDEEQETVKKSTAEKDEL

CCCCC#Cc1ccc(N[C@H]2CC[C@H](O)CC2)c(C(N)=O)c1
koff [1]: 0.114 s⁻¹
koff [2]: 0.0284 s⁻¹
